In patent publication US7553848B2, “Vanilloid receptor ligands and their use in treatments” (Amgen Inc., priority 2004, dated 2009):

Question: Which melting point does the source give for `CC(=O)Nc1nc2c(NC(=O)c3cc4ccc(C(F)(F)F)cc4s3)cccc2s1` here?
Answer: 285.4 to 285.9 °C

Question: For `O=C(Nc1ccc2c(c1)OCCO2)c1ccc2cc(Br)ccc2c1` [Example 14, 6-Bromo-naphthalene-2-carboxylic acid (2,3-dihydro-benzo[1,4]dioxin-6-yl)-amide], which melting point is on record?
Answer: 222.7 °C

Question: Which melting point does the source give for `CC(C)(C)c1ccc2cc(C(=O)Nc3ccc4c(c3)OCCO4)ncc2c1` [Example 11, 7-tert-Butyl-isoquinoline-3-carboxylic acid (2,3-dihydro-benzo[1,4]dioxin-6-yl)-amide] here?
Answer: 154 to 157 °C

Question: For `O=C(Nc1ccc2c(c1)OCCO2)c1cc2ncc(C(F)(F)F)cc2s1` [Example 12, 6-Trifluoromethyl-thieno[3,2-b]pyridine-2-carboxylic acid (2,3-dihydro-benzo[1,4]dioxin-6-yl)-amide], which melting point is on record?
Answer: 247 °C

Question: Which melting point does the source give for `O=C(Nc1ccc2c(c1)OCCO2)c1cnc2cc(C(F)(F)F)ccc2c1Cl` [Example 13, 4-Chloro-7-trifluoromethyl-quinoline-3-carboxylic acid (2,3-dihydro-benzo[1,4]dioxin-6-yl)-amide] here?
Answer: 296 °C

Question: For `CC(C)(C)c1ccc2c(c1)CN[C@H](C(=O)Nc1ccc3c(c1)OCCO3)C2.Cl`, which melting point is on record?
Answer: 134 °C

Question: For `CC(=O)Nc1nc2c(NC(=O)c3ccc4cc(Br)ccc4c3)cccc2s1` [Example 4, 6-Bromo-naphthalene-2-carboxylic acid (2-acetylamino-benzothiazol-4-yl)-amide], which melting point is on record?
Answer: 241.6 °C
